Patent US20250327770A1, “Protein-Derived Peptide Multiplexes for Biomimetic Detection of VOC Profiles” (University of Washington, priority 2022, published 2025)
“Also recorded” adds a separate entry of the source. Blank lines part the entries; values can stand above or below the sequence they belong to.

Assays:
[1] = QCM VOC binding, octanal; conditions: wet N2 gas stream
Protocol: (§1) VOC binding validation by QCM utilized chimeric molecular constructs tethered to a substrate in a VOC-doped gas stream. Gold QCM substrates (Qsense, Phoenix, AZ, USA) were coated with 10 nm thick carbon film by evaporation (SPI, West Chester, PA, USA). 10 μL of 1 μM aqueous peptide was deposited and incubated for 1 hour at room temperature, and then the sample was dried in a nitrogen gas stream. A KSV model Z500 QCM (Qsense, Phoenix, AZ, USA) was used to measure VOC binding to bare carbon (control), and peptide-coated substrates. Humidified nitrogen was measured as the baseline, then VOC was introduced by bubbling nitrogen through the VOC/deionized water mixture. The difference in resonant frequency between wet nitrogen and VOC mixture was reported, in which lower frequency indicated an increase in mass on the substrate due to VOC molecules binding to the surface.
(§2) Each of the six synthesized peptides was then tested against eight VOCs. The VOCs were chosen to include the targeted VOCs for all synthesized chimeric molecular constructs, plus ethanol as a common non-target. […] VOC adsorption caused damping of the QCM sensor—therefore, a higher affinity surface would produce a greater reduction in resonant frequency upon exposure to the gas stream. The concentration of the target VOC for each peptide was 20 μM, 10× lower than non-targets at 200 μM.

[2] = Peptide-sensitized CNT-FET sensor response to ethyl butyrate; conditions: gate voltage −1 V
Protocol: Sensors were placed in a box chamber that allowed gas flow into and out of the enclosure while allowing micromanipulator probes to be positioned on the sensor chip contact pads. Gas flow impinged directly above the sensor chip with a continuous flow rate of 50-60 SCCM as controlled by a flowmeter (Matheson, model FM-1050, Montgomeryville, PA, USA).
After placing the sensor chip into the gas chamber, a nitrogen purge of 2-3 minutes at 4 to 5 PSI in the gas line was performed in order to flush out ambient air trapped within the box enclosure. Transfer curve measurements were performed to determine sensor characteristics. The chip was then equilibrated in humidified N2 (“wet N2”) for 30-60 min by flowing in nitrogen gas that has passed through a gas bubbler filled with water. Sensor measurements were taken at this point to establish sensor baseline signal.
For peptide sensitization of the CNT sensing channel, the chip was removed from the gas chamber and dropcasted with 1.5 μL 100 μM peptide diluted in di-H2O. Peptide solution was pipetted directly onto the CNT sensing regions of the multiplexed chip and incubated for 60 minutes in a humidified environment to prevent evaporation. Devices were then spin dried by centrifugal force at 2,000 g. Sensor measurements were taken again after replacing the chip back into the gas chamber, purging with N2, and equilibrating in wet N2 for 30-60 min. Finally, the peptide-functionalized chip was exposed to humidified ethyl butyrate for 60-90 min before sensor measurements were taken.
Transfer curves were generated for each of the following experimental conditions: 1) Bare CNT sensors (i.e., non-functionalized) under non-humidified N2 gas exposure; 2) non-functionalized sensors under humidified N2 gas exposure; 3) peptide-functionalized sensors under humidified N2 gas exposure; and 4) peptide-functionalized sensors exposed to ethyl butyrate in humidified N2 carrier gas. Signal response was based on normalized source-drain current values obtained from the reverse sweep of the transfer curve at a gate potential of −1 V (Vg=−1 V), which was determined to be within the subthreshold voltage region for ethyl butyrate-exposed, peptide-functionalized sensors. […] Signal responses were normalized to their corresponding width-to-length CNT sensing channel dimensions. Mean signal response for each condition was calculated from a total of 9 to 13 technical replicates measured across two independent experiments (N=2).
Two VOC and C-binding peptides were used in order to functionalize CNT-FET devices and test their sensitivity to ethyl butyrate:MmedPep1-GrBP and BhorPep1-GrBP, which were predicted to bind to ethyl butyrate and a range of aldehydes and alkanes, respectively. […] However, the effect was reversed under ethyl butyrate exposure for CNT channels functionalized with MmedPep1-GrBP (FIG. 7B). Specifically, upon exposure to 378 mM ethyl butyrate solution (5% v/v in H2O), MmedPep1-GrBP-sensitized CNT-FET sensors measured 1.21±0.43 μA of current, compared to 0.20±0.9 μA for the aldehyde-sensitive BhorPep1-GrBP (p<0.001), as shown in FIG. 7C.

[3] = QCM VOC binding, nonanal; conditions: wet N2 gas stream
Protocol: as §1, §2

[4] = SPR adsorption of peptide onto bare gold; format: binding; conditions: 500 nM peptide concentration
Protocol: (§3) SPR (GE Healthcare, Biacore T200) was performed to validate specific adsorption of peptides onto a carbon substrate. Bare gold and carbon- and poly-L-lysine-functionalized substrates were used. Substrate fabrication used e-beam evaporation (CHA Industries, Solution Process Development System) of titanium (3-nm thick layer) then gold (47-nm thick layer) onto 1-cm^2 optical quality glass. A 20-nm thick carbon layer was sputtered (Kurt J. Lesker Company, Lab 18 Sputter System) onto the fabricated gold substrates at a rate of 10 Å per minute, and poly-L-lysine coatings were drop-cast incubated with 0.1% v/v poly-L-lysine for 30 minutes and rinsed with di-H2O, then air dried. A single-cycle kinetics curve was generated by sequential injection of MmedPep1-GBP peptide at 2-fold increasing concentrations up to 500 nM in buffer (100 mM KCl, 10 mM K+ phosphate). An injection flow rate of 30 μL/min and a temperature of 25° C. were used. Response values were plotted and fitted to a Langmuir isotherm curve by minimizing the sum of square differences between the dataset and the isotherm model.

[5] = SPR adsorption of peptide onto carbon substrate; format: binding
Protocol: as §3

[6] = SPR adsorption of peptide onto poly-L-lysine substrate; format: binding; conditions: 500 nM peptide concentration
Protocol: as §3

[7] = QCM VOC binding, ethanol; conditions: wet N2 gas stream
Protocol: as §1, §2

[8] = QCM VOC binding, ethyl butyrate; conditions: wet N2 gas stream
Protocol: as §1, §2

[9] = 378 mM ethyl butyrate solution (5% v/v in H2O), Vsd=−5 V

octanal affinity (QCM) [1]: notable
Sequence: GIVLLATYEKIISIYFIFFGGGYSSY [BhorPep1-GrBP, chimeric construct from BhorOBPm2; targets aldehydes and alkanes]
source-drain current upon ethyl butyrate exposure [2, 9]: 0.20±0.9 μA
source-drain current upon ethyl butyrate exposure ([2]; Vds=−3 V): 0.038±0.020 μA
CNT-FET signal response to ethyl butyrate exposure (in words) [2]: respond weakly

nonanal affinity (QCM) [3]: notable
Sequence: SHFVGGGYSSY [HcunPep1-GrBP, chimeric construct from HcunPBP3; target nonanal]

Sequence: VGARNGGGYSSY [MmedPep1-GrBP, target ethyl butyrate]
SPR signal [4]: 18.4±1.7 RU
SPR signal ([5]; 500 nM peptide concentration, carbon-coated gold surface): 158.4±44.1 RU
substrate preference of adsorption (carbon vs gold, poly-L-lysine) ([5]; SPR): specific preference for the carbon substrate; also recorded: specific absorption
source-drain current upon ethyl butyrate exposure [2, 9]: 1.21±0.43 μA
source-drain current upon ethyl butyrate exposure ([2]; Vds=−3 V): 0.542±0.721 μA
CNT-FET signal response to ethyl butyrate exposure (in words) [2]: robust signal response
SPR signal [6]: 6.5±2.9 RU

affinity for ethanol (QCM) [7]: reduced affinity
ethyl butyrate binding preference (QCM) [8]: strongly selective
Sequence: VGGGAGRGNGGGYSSY [MmedPep1s-GrBP, glycine spacer variant of MmedPep1-GrBP; target ethyl butyrate]
